Reference: paper PMC4490784, “Compensatory induction of MYC expression by sustained CDK9 inhibition via a BRD4-dependent mechanism” (eLife, 2015)

How the values were obtained:
Experiment in all cases: KINOMEscan binding assay
[1] = biological target: T1, BMPR1A (Homo sapiens, UniProt P36894); conditions: read-out: % Retention on Solid Support
T1 construct: purchased DiscoveRx KINOMEscan
In short: (§1)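 i-CDK9 at 1 and 10 µM; competition binding against an immobilized active-site probe; >400-kinase panel.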

[2] = biological target: T2, CDK11 (Homo sapiens, UniProt Q9BWU1)
T2 construct: purchased DiscoveRx KINOMEscan
In short: as §1

[3] = biological target: T3, CSNK1D (Homo sapiens, UniProt P48730); conditions: read-out: % Retention on Solid Support
T3 construct: purchased DiscoveRx KINOMEscan
In short: as §1

[4] = biological target: T4, EGFR(L858R,T790M) (Homo sapiens, UniProt P00533, L858R/T790M)
T4 construct: purchased DiscoveRx KINOMEscan
In short: as §1

[5] = biological target: T5, ERBB3 (Homo sapiens, UniProt P21860); conditions: read-out: % Retention on Solid Support
T5 construct: purchased DiscoveRx KINOMEscan
In short: as §1

[6] = biological target: T6, ERK1 (Homo sapiens, UniProt P27361); conditions: read-out: % Retention on Solid Support
T6 construct: purchased DiscoveRx KINOMEscan
In short: as §1

[7] = biological target: T7, ERK2 (Homo sapiens, UniProt P28482); conditions: read-out: % Retention on Solid Support
T7 construct: purchased DiscoveRx KINOMEscan
In short: as §1

[8] = biological target: T8, FGFR1 (Homo sapiens, UniProt P11362); conditions: read-out: % Retention on Solid Support
T8 construct: purchased DiscoveRx KINOMEscan
In short: as §1

[9] = biological target: T9, FLT3(D835H) (Homo sapiens, UniProt P36888, D835H); conditions: read-out: % Retention on Solid Support
T9 construct: purchased DiscoveRx KINOMEscan
In short: as §1

[10] = biological target: T10, HIPK1 (Homo sapiens, UniProt Q86Z02); conditions: read-out: % Retention on Solid Support
T10 construct: purchased DiscoveRx KINOMEscan
In short: as §1

[11] = biological target: T11, HPK1 (Homo sapiens, UniProt Q92918); conditions: read-out: % Retention on Solid Support
T11 construct: purchased DiscoveRx KINOMEscan
In short: as §1

[12] = biological target: T12, IKK-epsilon (Homo sapiens, UniProt Q14164); conditions: read-out: % Retention on Solid Support
T12 construct: purchased DiscoveRx KINOMEscan
In short: as §1

[13] = biological target: T13, LATS1 (Homo sapiens, UniProt O95835); conditions: read-out: % Retention on Solid Support
T13 construct: purchased DiscoveRx KINOMEscan
In short: as §1

[14] = biological target: T14, LOK (Homo sapiens, UniProt O94804)
T14 construct: purchased DiscoveRx KINOMEscan
In short: as §1

[15] = biological target: T15, LRRK2 (Homo sapiens, UniProt Q5S007); conditions: 1 µM i-CDK9; read-out: % Retention on Solid Support
T15 construct: purchased DiscoveRx KINOMEscan
In short: as §1

[16] = biological target: T16, MAK (Homo sapiens, UniProt P20794); conditions: read-out: % Retention on Solid Support
T16 construct: purchased DiscoveRx KINOMEscan
In short: as §1

[17] = biological target: T17, MARK3 (Homo sapiens, UniProt P27448); conditions: read-out: % Retention on Solid Support
T17 construct: purchased DiscoveRx KINOMEscan
In short: as §1

[18] = biological target: T18, MAST1 (Homo sapiens, UniProt Q9Y2H9); conditions: read-out: % Retention on Solid Support
T18 construct: purchased DiscoveRx KINOMEscan
In short: as §1

[19] = biological target: T19, MEK4 (Homo sapiens, UniProt P45985); conditions: read-out: % Retention on Solid Support
T19 construct: purchased DiscoveRx KINOMEscan
In short: as §1

[20] = biological target: T20, MKNK1 (Homo sapiens, UniProt Q9BUB5); conditions: read-out: % Retention on Solid Support
T20 construct: purchased DiscoveRx KINOMEscan
In short: as §1

[21] = biological target: T21, PAK2 (Homo sapiens, UniProt Q13177); conditions: read-out: % Retention on Solid Support
T21 construct: purchased DiscoveRx KINOMEscan
In short: as §1

[22] = biological target: T22, PDGFRA (Homo sapiens, UniProt P16234); conditions: read-out: % Retention on Solid Support
T22 construct: purchased DiscoveRx KINOMEscan
In short: as §1

[23] = biological target: T23, PDGFRB (Homo sapiens, UniProt P09619); conditions: read-out: % Retention on Solid Support
T23 construct: purchased DiscoveRx KINOMEscan
In short: as §1

[24] = biological target: T24, PIK3CA(H1047L) (Homo sapiens, UniProt P42336, H1047L); conditions: read-out: % Retention on Solid Support
T24 construct: purchased DiscoveRx KINOMEscan
In short: as §1

[25] = biological target: T25, PKAC-beta (Homo sapiens, UniProt P22694); conditions: read-out: % Retention on Solid Support
T25 construct: purchased DiscoveRx KINOMEscan
In short: as §1

[26] = biological target: T26, PRKCE (Homo sapiens, UniProt Q02156); conditions: read-out: % Retention on Solid Support
T26 construct: purchased DiscoveRx KINOMEscan
In short: as §1

[27] = biological target: T27, PRKCI (Homo sapiens, UniProt P41743); conditions: 1 µM i-CDK9; read-out: % Retention on Solid Support
T27 construct: purchased DiscoveRx KINOMEscan
In short: as §1

[28] = biological target: T28, RIOK2 (Homo sapiens, UniProt Q9BVS4); conditions: read-out: % Retention on Solid Support
T28 construct: purchased DiscoveRx KINOMEscan
In short: as §1

[29] = biological target: T29, STK35 (Homo sapiens, UniProt Q8TDR2); conditions: read-out: % Retention on Solid Support
T29 construct: purchased DiscoveRx KINOMEscan
In short: as §1

[30] = biological target: T30, TNNI3K (Homo sapiens, UniProt Q59H18); conditions: read-out: % Retention on Solid Support
T30 construct: purchased DiscoveRx KINOMEscan
In short: as §1

T23 sequence (P09619 33-1106): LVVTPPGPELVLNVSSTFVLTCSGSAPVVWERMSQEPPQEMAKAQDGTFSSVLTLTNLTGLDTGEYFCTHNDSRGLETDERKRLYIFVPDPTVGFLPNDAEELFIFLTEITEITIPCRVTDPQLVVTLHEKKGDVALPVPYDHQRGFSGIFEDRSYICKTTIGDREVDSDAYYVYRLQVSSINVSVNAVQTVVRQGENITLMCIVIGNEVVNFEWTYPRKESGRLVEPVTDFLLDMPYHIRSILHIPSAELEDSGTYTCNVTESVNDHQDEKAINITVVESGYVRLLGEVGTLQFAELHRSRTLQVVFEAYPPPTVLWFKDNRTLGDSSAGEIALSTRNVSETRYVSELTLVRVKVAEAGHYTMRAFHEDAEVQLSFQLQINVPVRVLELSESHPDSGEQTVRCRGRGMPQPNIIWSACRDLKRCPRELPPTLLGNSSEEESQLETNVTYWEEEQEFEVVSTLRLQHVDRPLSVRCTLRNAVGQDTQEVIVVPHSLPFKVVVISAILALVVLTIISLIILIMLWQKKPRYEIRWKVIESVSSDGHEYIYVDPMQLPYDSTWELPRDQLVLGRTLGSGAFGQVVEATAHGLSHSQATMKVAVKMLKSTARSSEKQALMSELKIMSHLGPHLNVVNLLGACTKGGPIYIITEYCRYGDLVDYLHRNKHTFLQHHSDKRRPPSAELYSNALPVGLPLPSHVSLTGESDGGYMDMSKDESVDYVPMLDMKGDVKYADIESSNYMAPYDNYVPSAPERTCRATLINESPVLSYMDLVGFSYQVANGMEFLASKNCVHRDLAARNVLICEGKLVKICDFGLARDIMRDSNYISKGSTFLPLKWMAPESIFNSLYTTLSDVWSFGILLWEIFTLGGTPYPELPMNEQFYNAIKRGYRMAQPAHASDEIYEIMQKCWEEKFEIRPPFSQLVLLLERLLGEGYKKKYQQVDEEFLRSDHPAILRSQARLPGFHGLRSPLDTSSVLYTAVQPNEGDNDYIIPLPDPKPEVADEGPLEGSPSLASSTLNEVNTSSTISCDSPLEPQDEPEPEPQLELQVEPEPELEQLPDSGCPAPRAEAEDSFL
T5 sequence (P21860 20-1342): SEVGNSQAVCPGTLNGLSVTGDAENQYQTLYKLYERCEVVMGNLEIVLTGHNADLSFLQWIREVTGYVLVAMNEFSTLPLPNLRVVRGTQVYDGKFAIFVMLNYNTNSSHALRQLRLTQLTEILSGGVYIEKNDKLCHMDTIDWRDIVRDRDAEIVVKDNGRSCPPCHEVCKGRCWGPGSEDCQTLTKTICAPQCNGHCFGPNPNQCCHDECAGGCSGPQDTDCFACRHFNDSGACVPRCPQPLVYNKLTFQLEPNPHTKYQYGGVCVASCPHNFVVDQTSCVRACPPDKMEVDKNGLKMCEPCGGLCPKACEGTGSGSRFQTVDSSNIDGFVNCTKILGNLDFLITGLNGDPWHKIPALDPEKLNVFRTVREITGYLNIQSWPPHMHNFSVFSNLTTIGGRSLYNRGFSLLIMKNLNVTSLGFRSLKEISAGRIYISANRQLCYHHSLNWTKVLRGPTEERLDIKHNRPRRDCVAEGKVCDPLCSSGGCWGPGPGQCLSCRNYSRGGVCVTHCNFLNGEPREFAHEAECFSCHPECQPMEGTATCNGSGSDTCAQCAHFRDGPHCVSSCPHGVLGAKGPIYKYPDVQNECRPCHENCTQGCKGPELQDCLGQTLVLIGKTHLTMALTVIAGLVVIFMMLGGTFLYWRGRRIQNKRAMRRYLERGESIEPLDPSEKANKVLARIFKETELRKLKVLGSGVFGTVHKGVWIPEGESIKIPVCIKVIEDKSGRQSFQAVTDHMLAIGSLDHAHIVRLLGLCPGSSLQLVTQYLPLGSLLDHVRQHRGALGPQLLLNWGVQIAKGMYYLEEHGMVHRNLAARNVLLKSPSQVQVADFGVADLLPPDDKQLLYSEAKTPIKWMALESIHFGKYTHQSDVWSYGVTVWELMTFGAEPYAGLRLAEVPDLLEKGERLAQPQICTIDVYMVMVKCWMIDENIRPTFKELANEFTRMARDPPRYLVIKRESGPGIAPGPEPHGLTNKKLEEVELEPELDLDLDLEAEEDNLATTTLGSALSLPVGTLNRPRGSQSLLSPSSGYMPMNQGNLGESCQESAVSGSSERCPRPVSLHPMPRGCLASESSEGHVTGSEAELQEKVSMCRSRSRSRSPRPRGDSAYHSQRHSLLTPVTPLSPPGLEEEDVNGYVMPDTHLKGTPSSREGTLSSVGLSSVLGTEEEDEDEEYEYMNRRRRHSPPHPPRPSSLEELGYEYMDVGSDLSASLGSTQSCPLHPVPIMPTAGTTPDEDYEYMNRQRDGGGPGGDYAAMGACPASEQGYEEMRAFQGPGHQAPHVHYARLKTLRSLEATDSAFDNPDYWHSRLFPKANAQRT
T21 sequence (Q13177 whole entry): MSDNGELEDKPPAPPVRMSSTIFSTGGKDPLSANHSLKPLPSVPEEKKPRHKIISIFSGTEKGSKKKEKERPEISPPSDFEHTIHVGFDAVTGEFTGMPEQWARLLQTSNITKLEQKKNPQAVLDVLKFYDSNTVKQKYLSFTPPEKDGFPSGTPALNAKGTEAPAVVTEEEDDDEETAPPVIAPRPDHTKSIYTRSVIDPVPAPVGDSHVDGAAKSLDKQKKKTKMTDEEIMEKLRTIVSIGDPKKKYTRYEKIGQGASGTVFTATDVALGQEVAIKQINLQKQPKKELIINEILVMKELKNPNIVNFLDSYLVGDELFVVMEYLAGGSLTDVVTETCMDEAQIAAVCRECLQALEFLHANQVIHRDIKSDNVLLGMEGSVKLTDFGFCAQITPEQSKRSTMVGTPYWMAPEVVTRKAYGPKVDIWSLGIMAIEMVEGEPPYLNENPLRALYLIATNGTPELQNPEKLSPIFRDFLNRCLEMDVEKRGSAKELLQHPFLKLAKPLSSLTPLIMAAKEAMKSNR
T1 sequence (P36894 24-532): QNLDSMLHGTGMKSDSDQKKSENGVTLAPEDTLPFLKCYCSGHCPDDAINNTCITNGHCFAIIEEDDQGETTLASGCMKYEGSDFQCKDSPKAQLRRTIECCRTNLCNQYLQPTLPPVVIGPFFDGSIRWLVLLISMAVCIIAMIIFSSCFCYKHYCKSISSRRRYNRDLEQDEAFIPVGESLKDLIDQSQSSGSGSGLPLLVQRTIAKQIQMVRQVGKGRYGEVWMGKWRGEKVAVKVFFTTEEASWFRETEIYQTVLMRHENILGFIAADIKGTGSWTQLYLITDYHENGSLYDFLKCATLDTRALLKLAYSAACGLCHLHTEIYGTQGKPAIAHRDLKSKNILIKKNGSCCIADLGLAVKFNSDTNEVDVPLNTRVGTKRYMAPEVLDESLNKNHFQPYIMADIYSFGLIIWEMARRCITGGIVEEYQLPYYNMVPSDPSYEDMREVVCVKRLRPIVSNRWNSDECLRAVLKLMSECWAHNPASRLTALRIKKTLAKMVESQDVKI
T29 sequence (Q8TDR2 whole entry): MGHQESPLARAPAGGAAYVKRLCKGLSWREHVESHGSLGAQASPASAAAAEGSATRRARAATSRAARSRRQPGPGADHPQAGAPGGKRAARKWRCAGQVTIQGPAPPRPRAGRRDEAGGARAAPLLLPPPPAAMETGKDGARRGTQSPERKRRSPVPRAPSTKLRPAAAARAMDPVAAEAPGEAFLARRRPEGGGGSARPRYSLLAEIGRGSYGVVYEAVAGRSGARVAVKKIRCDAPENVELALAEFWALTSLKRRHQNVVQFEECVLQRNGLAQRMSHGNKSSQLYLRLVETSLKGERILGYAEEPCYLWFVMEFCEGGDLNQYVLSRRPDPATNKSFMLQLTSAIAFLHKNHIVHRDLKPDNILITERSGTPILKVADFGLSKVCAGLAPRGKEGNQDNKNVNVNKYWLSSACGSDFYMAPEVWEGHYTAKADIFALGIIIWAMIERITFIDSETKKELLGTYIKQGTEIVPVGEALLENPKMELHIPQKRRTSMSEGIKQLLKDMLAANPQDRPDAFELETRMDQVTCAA
T2 sequence (Q9BWU1 whole entry): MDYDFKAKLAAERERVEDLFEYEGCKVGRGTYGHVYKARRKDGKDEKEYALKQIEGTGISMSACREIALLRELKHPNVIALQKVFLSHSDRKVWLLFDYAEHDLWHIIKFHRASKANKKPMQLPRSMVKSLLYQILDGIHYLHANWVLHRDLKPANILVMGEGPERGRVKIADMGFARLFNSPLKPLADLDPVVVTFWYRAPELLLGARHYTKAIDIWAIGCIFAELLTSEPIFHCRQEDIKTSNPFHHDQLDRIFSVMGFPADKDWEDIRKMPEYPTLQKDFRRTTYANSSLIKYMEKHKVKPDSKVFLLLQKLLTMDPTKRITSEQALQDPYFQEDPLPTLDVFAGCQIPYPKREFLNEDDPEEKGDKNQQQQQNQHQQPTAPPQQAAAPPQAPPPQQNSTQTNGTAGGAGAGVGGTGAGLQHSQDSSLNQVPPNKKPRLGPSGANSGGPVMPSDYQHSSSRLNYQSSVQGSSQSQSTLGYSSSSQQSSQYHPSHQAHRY
T28 sequence (Q9BVS4 whole entry): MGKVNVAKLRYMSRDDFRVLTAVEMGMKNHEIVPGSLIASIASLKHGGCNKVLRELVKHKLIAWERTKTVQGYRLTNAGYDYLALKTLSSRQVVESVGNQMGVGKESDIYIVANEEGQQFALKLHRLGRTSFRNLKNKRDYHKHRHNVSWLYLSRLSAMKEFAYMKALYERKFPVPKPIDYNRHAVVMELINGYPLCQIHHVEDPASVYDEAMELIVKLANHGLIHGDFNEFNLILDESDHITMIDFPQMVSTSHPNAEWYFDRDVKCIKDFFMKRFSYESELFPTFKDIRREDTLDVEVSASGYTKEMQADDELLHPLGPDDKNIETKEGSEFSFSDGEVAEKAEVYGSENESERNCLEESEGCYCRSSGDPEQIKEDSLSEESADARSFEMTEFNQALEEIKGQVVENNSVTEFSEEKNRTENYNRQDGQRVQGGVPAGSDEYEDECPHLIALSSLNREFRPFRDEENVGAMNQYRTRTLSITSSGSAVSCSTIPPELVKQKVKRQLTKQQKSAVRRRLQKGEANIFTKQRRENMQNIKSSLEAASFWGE

N[C@H]1CC[C@H](Nc2cc(-c3cccc(NCc4cccc(F)c4)n3)c(Cl)cn2)CC1 [i-CDK9, N2′-(trans-4-aminocyclohexyl)-5′-chloro-N6-(3-fluorobenzyl)-2,4′-bipyridine-2′,6-diamine]
remaining binding at 1 µM ([1]; 1 µM i-CDK9): 63% | remaining binding at 10 µM ([1]; 10 µM i-CDK9): 100% | % Retention on Solid Support ([2]; 1 µM i-CDK9): 94% | % Retention on Solid Support ([2]; 10 µM i-CDK9): 100% | remaining binding at 1 µM ([3]; 1 µM i-CDK9): 47% | remaining binding at 10 µM ([3]; 10 µM i-CDK9): 33% | % Retention on Solid Support ([4]; 1 µM i-CDK9): 100% | % Retention on Solid Support ([4]; 10 µM i-CDK9): 89% | remaining binding at 1 µM ([5]; 1 µM i-CDK9): 100% | remaining binding at 10 µM ([5]; 10 µM i-CDK9): 100% | remaining binding at 1 µM ([6]; 1 µM i-CDK9): 100% | remaining binding at 10 µM ([6]; 10 µM i-CDK9): 93% | remaining binding at 1 µM ([7]; 1 µM i-CDK9): 100% | remaining binding at 10 µM ([7]; 10 µM i-CDK9): 100% | remaining binding at 1 µM ([8]; 1 µM i-CDK9): 100% | remaining binding at 10 µM ([8]; 10 µM i-CDK9): 100% | remaining binding at 1 µM ([9]; 1 µM i-CDK9): 100% | remaining binding at 10 µM ([9]; 10 µM i-CDK9): 70% | remaining binding at 1 µM ([10]; 1 µM i-CDK9): 44% | remaining binding at 10 µM ([10]; 10 µM i-CDK9): 29% | remaining binding at 1 µM ([11]; 1 µM i-CDK9): 86% | remaining binding at 10 µM ([11]; 10 µM i-CDK9): 100% | remaining binding at 1 µM ([12]; 1 µM i-CDK9): 95% | remaining binding at 10 µM ([12]; 10 µM i-CDK9): 100% | remaining binding at 1 µM ([13]; 1 µM i-CDK9): 100% | remaining binding at 10 µM ([13]; 10 µM i-CDK9): 100% | % Retention on Solid Support ([14]; 1 µM i-CDK9): 89% | % Retention on Solid Support ([14]; 10 µM i-CDK9): 100% | remaining binding at 1 µM [15]: 100% | remaining binding at 1 µM ([16]; 1 µM i-CDK9): 100% | remaining binding at 10 µM ([16]; 10 µM i-CDK9): 30% | remaining binding at 1 µM ([17]; 1 µM i-CDK9): 94% | remaining binding at 10 µM ([17]; 10 µM i-CDK9): 71% | remaining binding at 1 µM ([18]; 1 µM i-CDK9): 100% | remaining binding at 10 µM ([18]; 10 µM i-CDK9): 82% | remaining binding at 1 µM ([19]; 1 µM i-CDK9): 39% | remaining binding at 10 µM ([19]; 10 µM i-CDK9): 97% | remaining binding at 1 µM ([20]; 1 µM i-CDK9): 100% | remaining binding at 10 µM ([20]; 10 µM i-CDK9): 100% | remaining binding at 1 µM ([21]; 1 µM i-CDK9): 98% | remaining binding at 10 µM ([21]; 10 µM i-CDK9): 91% | remaining binding at 1 µM ([22]; 1 µM i-CDK9): 59% | remaining binding at 10 µM ([22]; 10 µM i-CDK9): 88% | remaining binding at 1 µM ([23]; 1 µM i-CDK9): 74% | remaining binding at 10 µM ([23]; 10 µM i-CDK9): 100% | remaining binding at 1 µM ([24]; 1 µM i-CDK9): 99% | remaining binding at 10 µM ([24]; 10 µM i-CDK9): 100% | remaining binding at 1 µM ([25]; 1 µM i-CDK9): 80% | remaining binding at 10 µM ([25]; 10 µM i-CDK9): 80% | remaining binding at 1 µM ([26]; 1 µM i-CDK9): 100% | remaining binding at 10 µM ([26]; 10 µM i-CDK9): 100% | remaining binding at 1 µM [27]: 100% | remaining binding at 1 µM ([28]; 1 µM i-CDK9): 100% | remaining binding at 10 µM ([28]; 10 µM i-CDK9): 32% | remaining binding at 1 µM ([29]; 1 µM i-CDK9): 100% | remaining binding at 10 µM ([29]; 10 µM i-CDK9): 91% | remaining binding at 1 µM ([30]; 1 µM i-CDK9): 81% | remaining binding at 10 µM ([30]; 10 µM i-CDK9): 100%
